Source: ChEMBL document CHEMBL4033712, “Synthesis and biological evaluation of new C-12(α/β)-(N-) sulfamoyl-phenylamino-14-deoxy-andrographolide derivatives as potent anti-cancer agents” (Bioorg Med Chem Lett, 2017)

Experiments:
[1] = tested on: NHDF; test: (§1) Growth inhibition of human NHDF after 72 hrs by CellTiter-Glo luminescent cell viability assay; assay type: cell-based; details: nhdf, 72 h
[2] = as §1; assay type: cell-based; details: NHDF cells
[3] = Growth inhibition of human NCI60 cells after 48 hrs by sulforhodamine B assay; assay type: functional; details: NCI60, 48 h

SMILES	LC50 [1]	GI50 at 72 h [2]	GI50 [3]	TGI [3]	CC50 ([3]; read-out: LC50 (the source's name))
CN(C)C/C=C/C(=O)Nc1ccc(C(=O)Nc2ccc(Nc3ncc(Cl)c(-c4c[nH]c5ccccc45)n3)cc2)cc1	0.250743 µM	0.0466 µM	–	–	–
C=C1CC[C@@H]2[C@](C)(CO)[C@H](O)CC[C@@]2(C)[C@@H]1C/C=C1/C(=O)OC[C@H]1O [ANDROGRAPHOLIDE]	–	–	16.2 µM	49.7 µM	80.9 µM
